# Values of other authors as cited in US12544371B2, “Methods and compositions for treating acute lung injury and acute respiratory distress syndrome” (CalciMedica, Inc., priority 2020, dated 2026).
# “Also recorded” adds a separate entry of the source.
# Tests used:
# [1] = mice, cited from earlier work
# [2] = Gandhirajan et al. 2013; cited from earlier work
# [3] = cited from earlier work
compound,measurement,setting,value
"Cc1nnsc1C(=O)Nc1ccc(-n2nc(C(F)(F)F)cc2C(F)(F)F)cc1 [BTP2, N-(4-(3,5-bis(trifluoromethyl)-1H-pyrazol-1-yl)phenyl)-4-methyl-1,2,3-thiadiazole-5-carboxamide]",endothelial cell Ca2+ flux,[1]; delivered 2 hours after systemic endotoxin,striking reduction
same,measures of lung injury (endotoxin / lipopolysaccharide-induced),[1],sharp decrease; also recorded: attenuate
same,infiltration of neutrophils into inflamed lung tissue,[2],reduced
same,inflammatory cytokines associated with lung inflammation,[2],down-regulated
same,vascular permeability in lungs,[2],decreased
same,endothelial lung dysfunction and lung inflammation,[3]; rat ventilator-induced lung injury,suppress
same,ventilator-induced lung injury,[3]; rats,attenuate
